Source: PubChem BioAssay AID1963446 (Molecular Pharmacology Branch, DTP, NCI, 2024)
pIC50: −log10 of the molar value. Where “and” joins values, the source holds several entries; their conditions need not be identical. Equal entries are not always repeated. Blank lines part the entries; values can stand above or below the compound they belong to.

System: 993429-296-R-J1-PDC complex spheroid growth, percent test/control
Experiment: Anticancer human tumor 993429-296-R-J1-PDC patient-derived uterine sarcoma cell line growth inhibition [Asc]
Details: for viability, T/C: stronger effect = lower value
Method: Multicellular complex tumor spheroid response to apoptosis pathway targeting inhibitors Alrizomadlin, Pelcitoclax, and Dasminapant in combination with a variety of drugs and investigational agents in selected tumor cell lines
The MDM2 inhibitor alrizomadlin, the Bcl-2/Bcl-xL inhibitor pelcitoclax, and the IAPs inhibitor dasminapant were evaluated both individually and in combination with standard of care and investigational anticancer small molecules within a complex spheroid model of solid tumors. . Complex spheroids include a stromal component modeled by human endothelial cells (HUVEC) and fibroblasts modeled by human mesenchymal stem cells (MSCs). The concentration ranges selected for each drug and investigational agent were based upon clinically achievable concentrations if the clinical Cmax of the agent was known.
Compounds. The drugs and investigational agents: alrizomadlin (APG-115; NSC831270), pelcitoclax (APG-1252; NSC835773), dasminapant (APG-1387;NSC834197), TAK-243 (NSC785004), copanlisib (NSC809693), olaparib (NSC753686), talazoparib (NSC767125), cobimetinib (NSC 768068), eltanexor (KPT-8602, NSC 794443), abemaciclib (NSC 768073), sotorasib (NSC818433), adagrasib (NSC 831453), MRTX-1133 (NSC 836407), Iadademestat (ORY1001, NSC 806812), and RMC-4630 (NSC839698), were obtained from the NCI Developmental Therapeutics Program Chemical Repository. The FDA-approved anticancer drug set is available from the Developmental Therapeutics Program at https://dtp.cancer.gov/organization/dscb/obtaining/available plates.htm. […] The stock solutions were prepared in dimethyl sulfoxide (DMSO, Sigma-Aldrich, St. Louis, MO, cat. D2650) at 800-fold the tested concentration and stored at -70 degrees C prior to their use. All drugs and investigational agents were tested over a range starting from a high concentration at or near the clinical Cmax and decreasing in half-log increments. If the clinical Cmax for an agent had not been determined, the highest concentration tested was 10 microM.
The patient-derived cancer (PDC) cell lines include five colon adenocarcinomas: 186277-243-T-J2-PDC, 616215-338-R-J1-PDC, 439559-082-T-J2-PDC, 463943-066-T-J2-PDC, and 519858-162-T-J1-PDC; three pancreatic carcinomas: 323965-272-R-J2-PDC, 521955-158-R6-J3-PDC, and 521955-158-R2-J5-PDC; two uterine sarcomas: 327498-152-R-J2-PDC and 993429-296-R-J1-PDC; two rhabdomyosarcomas: 755483-174-R-J1-PDC and 772245-204-R-J1-PDC; two soft tissue sarcomas: 126254-015-R-J1-PDC and 494315-158-R-J1-PDC; two malignant fibrous histiocytomas: 317291-083-R-J1-PDC and 596521-263-R-J1-PDC; two breast carcinomas: 171881-019-R-J1-PDC and 885512-296-R-J2-PDC; and one ovarian carcinoma: 6556581-035-R-J-PDC were obtained from the NCI PDMR, (https://pdmr.cancer.gov). The established cell lines HSSY-2 synovial sarcoma (RRID:CVCL 8719), SYO-1 synovial sarcoma (RRID:CVCL_7146), MPNST malignant peripheral neural sheath tumor were obtained from the Sloan Kettering Institute. The following established cell lines were purchased from the American Type Culture Collection (ATCC, Manassas, VA), Sor the received from the NCI repository:, PANC-1 pancreatic carcinoma (CRL-1469, RRID:CVCL_0480), OVCAR-5 ovarian carcinoma (RRID:CVCL_1628), OVCAR-8 ovarian carcinoma (RRID:CVCL_1629), , MCF-7 breast carcinoma (CRL-12584, RRID:CVCL_0031), MDA-MB-231 breast carcinoma (CRL-12532, RRID:CVCL_0062), NCI-H1876 small cell lung carcinoma (CRL-5902, RRID:CVCL_1503), NCI-H510A small cell lung carcinoma (HTB-184, RRID:CVCL_1565), NCI-H1417 (CRL-5869, RRID:CVCL_1469), and NCI-H196 small cell lung carcinoma (CRL-5823, RRID:CVCL_1509). Dr. Peter Houghton (Greehey Children's Cancer Research Institute, University of Texas Health Science Center, San Antonio, TX) provided Rh-18 rhabdomyosarcoma (RRID:CVCL_1659). Pooled donor human umbilical vein endothelial cells (HUVEC, Lonza, cat. CC-2519) and human mesenchymal stem cells (hMSC, Lonza, cat. PT-2501) were purchased from Lonza (Walkersville, MD).
Cell Culture. […]

[1] = curve of first compound, second compound 0.1 µM
[2] = curve of first compound, second compound 0.316 µM
[3] = curve of first compound, second compound 1 µM
[4] = second compound 0.1 µM, first compound 0.00949 µM
[5] = second compound 0.1 µM, first compound 0.03 µM
[6] = second compound 0.1 µM, first compound 0.0949 µM
[7] = second compound 0.1 µM, first compound 0.3 µM
[8] = second compound 0.316 µM, first compound 0.00949 µM
[9] = second compound 0.316 µM, first compound 0.03 µM
[10] = second compound 0.316 µM, first compound 0.0949 µM
[11] = second compound 0.316 µM, first compound 0.3 µM
[12] = second compound 1 µM, first compound 0.00949 µM
[13] = second compound 1 µM, first compound 0.03 µM
[14] = second compound 1 µM, first compound 0.0949 µM
[15] = second compound 1 µM, first compound 0.3 µM
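Also: spheroids exposed to compounds for seven days.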

pIC50 (curve of compound): < 6.00
Compound: CNC(C)C(=O)NC1CN(S(=O)(=O)c2cccc(S(=O)(=O)N3CCC4CCC(C(=O)NC(c5ccccc5)c5ccccc5)N4C(=O)C(NC(=O)C(C)NC)C3)c2)CCC2CCC(C(=O)NC(c3ccccc3)c3ccccc3)N2C1=O (stereo unspecified)
viability, T/C (compound 0.00316 µM): 80% and 76.5% | viability, T/C (compound 0.01 µM): 68.6% [middle of 15 runs] | viability, T/C (compound 0.0316 µM): 62.4% [middle of 15 runs] | viability, T/C (compound 0.1 µM): 55.9% [middle of 15 runs] | viability, T/C (compound 1 µM): 50.4% [middle of 15 runs]

pIC50 [1]: 8.10 | pIC50 [2]: 8.25 | pIC50 [3]: > 9.02 | pIC50 (curve of first compound, second compound 3.16 µM): 9.00 | pIC50 (curve of first compound, second compound 10 µM): 8.03
Compound: NC(=O)C(=Cn1cnc(-c2cc(C(F)(F)F)cc(C(F)(F)F)c2)n1)c1cncnc1 + Cc1c(S(C)(=O)=O)c(-c2cc(F)cc(N3CCN(c4ccc(NS(=O)(=O)c5ccc(NC(CCN6CCC(C(=O)OCCCP(=O)(O)O)CC6)CSc6ccccc6)c(S(=O)(=O)C(F)(F)F)c5)cc4)CC3)c2)c(-c2ccc(Cl)cc2)n1C(C)C
viability, T/C (second compound 0.1 µM, first compound 0.000949 µM): 79.2% | viability, T/C (second compound 0.1 µM, first compound 0.003 µM): 63% | viability, T/C [4]: 50.8% | viability, T/C [5]: 17.5% | viability, T/C [6]: 5.75% | viability, T/C [7]: 1.24% | viability, T/C (second compound 0.316 µM, first compound 0.000949 µM): 67% | viability, T/C (second compound 0.316 µM, first compound 0.003 µM): 59.9% | viability, T/C [8]: 41.4% | viability, T/C [9]: 13.1% | viability, T/C [10]: 2.18% | viability, T/C [11]: 0.54% | viability, T/C (second compound 1 µM, first compound 0.000949 µM): 48.8% | viability, T/C (second compound 1 µM, first compound 0.003 µM): 48.6% | viability, T/C [12]: 32.4% | viability, T/C [13]: 9.81% | viability, T/C [14]: 1.61% | viability, T/C [15]: 0.15% | viability, T/C (second compound 3.16 µM, first compound 0.000949 µM): 50.8% | viability, T/C (second compound 3.16 µM, first compound 0.003 µM): 35.8% | viability, T/C (second compound 3.16 µM, first compound 0.00949 µM): 24.6% | viability, T/C (second compound 3.16 µM, first compound 0.03 µM): 11.9% | viability, T/C (second compound 3.16 µM, first compound 0.0949 µM): 2.12% | viability, T/C (second compound 3.16 µM, first compound 0.3 µM): 0.26% | viability, T/C (second compound 10 µM, first compound 0.000949 µM): 75.6% | viability, T/C (second compound 10 µM, first compound 0.003 µM): 71.1% | viability, T/C (second compound 10 µM, first compound 0.00949 µM): 49.9% | viability, T/C (second compound 10 µM, first compound 0.03 µM): 13.7% | viability, T/C (second compound 10 µM, first compound 0.0949 µM): 1.63% | viability, T/C (second compound 10 µM, first compound 0.3 µM): 0.26%

pIC50 (curve of first compound, second compound 0.01 µM): 6.99 | pIC50 (curve of first compound, second compound 0.0316 µM): 7.07 | pIC50 [1]: 7.25 | pIC50 [2]: > 8.02 | pIC50 [3]: 6.97
Compound: Cc1nc(N2CCC3(CC2)COC(C)C3N)c(CO)nc1Sc1ccnc(N)c1Cl (stereo unspecified) + CNC(C)C(=O)NC1CN(S(=O)(=O)c2cccc(S(=O)(=O)N3CCC4CCC(C(=O)NC(c5ccccc5)c5ccccc5)N4C(=O)C(NC(=O)C(C)NC)C3)c2)CCC2CCC(C(=O)NC(c3ccccc3)c3ccccc3)N2C1=O
viability, T/C (second compound 0.01 µM, first compound 0.00949 µM): 68.6% | viability, T/C (second compound 0.01 µM, first compound 0.03 µM): 61.1% | viability, T/C (second compound 0.01 µM, first compound 0.0949 µM): 49.5% | viability, T/C (second compound 0.01 µM, first compound 0.3 µM): 42.5% | viability, T/C (second compound 0.01 µM, first compound 0.949 µM): 37% | viability, T/C (second compound 0.01 µM, first compound 3 µM): 32.2% | viability, T/C (second compound 0.0316 µM, first compound 0.00949 µM): 67.5% | viability, T/C (second compound 0.0316 µM, first compound 0.03 µM): 57.5% | viability, T/C (second compound 0.0316 µM, first compound 0.0949 µM): 50.9% | viability, T/C (second compound 0.0316 µM, first compound 0.3 µM): 39.4% | viability, T/C (second compound 0.0316 µM, first compound 0.949 µM): 36.7% | viability, T/C (second compound 0.0316 µM, first compound 3 µM): 30.9% | viability, T/C [4]: 60.1% | viability, T/C [5]: 54.9% | viability, T/C [6]: 45.2% | viability, T/C [7]: 39.8% | viability, T/C (second compound 0.1 µM, first compound 0.949 µM): 29% | viability, T/C (second compound 0.1 µM, first compound 3 µM): 28.3% | viability, T/C [8]: 43.6% | viability, T/C [9]: 48.9% | viability, T/C [10]: 51.9% | viability, T/C [11]: 41.3% | viability, T/C (second compound 0.316 µM, first compound 0.949 µM): 32.4% | viability, T/C (second compound 0.316 µM, first compound 3 µM): 29.2% | viability, T/C [12]: 53.1% | viability, T/C [13]: 48.1% | viability, T/C [14]: 52.2% | viability, T/C [15]: 40% | viability, T/C (second compound 1 µM, first compound 0.949 µM): 20.5% | viability, T/C (second compound 1 µM, first compound 3 µM): 26.7%
